According to patent US20120034641A1, “BIOLOGICAL INFORMATION ACQUISITION METHOD” (SONY CORPORATION, priority 2010, published 2012):

Tests used:
[1] = test system: three-dimensional culture skin (Kurabo; EPI-200X); experiment: Nicotinamide metabolites on the epidermis surface of cultured skin after adding cortisol to the culture solution; type: cell-based; details: glucocorticoid (cortisol) 50 nM or 500 nM in culture solution, sample collected from epidermis side after 1 hour
Experimental: Assessment was made as to the ability of a cultured skin to secrete nicotinamide metabolites on the horny layer of epidermis surface in response to cortisol or glucose. A three-dimensional culture skin (Kurabo; EPI-200X) was cultured with its dermis side in contact with the culture solution. Glucocorticoid (cortisol) was added to the culture solution to make the final concentration 50 nM or 500 nM. After 1 hour, 150 μL of PBS was contacted to the epidermis side, and the sample was collected. The amounts of NAD+, NADH, NADP+, and NADPH in the sample were then measured using commercially available colorimetric analysis kits (Amplite Colorimetric NAD/NADH Assay Kit, Amplite Colorimetric NADP/NADPH Assay Kit; ABD Bioquest Inc.).

[2] = intake of alcohol while eating vs no alcohol; FIG. 10
Experimental: The tip of index finger was gently wiped with a paper towel soaked with pure water. The bottom end of a microtube containing 50 μL of pure water was held with the thumb, with the upper opening of the microtube in contact with the tip of the index finger (see FIG. 1A). With the microtube held with the index finger and the thumb, the microtube was inverted to contact the pure water to the skin surface of the index finger for 1 minute.
Eleven subjects were allowed to eat the same food during the time period of from 12:00 to 13:00, and the epidermal fluid was collected at 12:00, 13:00, 14:00, 15:00, and 16:00.

| SMILES | NAD+/NADH ratio ([1]; FIG. 12A) | NADP+/NADPH ratio ([1]; FIG. 12B) | transient increase in NAD+/NADH ratio in epidermal fluid [2] |
| --- | --- | --- | --- |
| C[C@]12CCC(=O)C=C1CC[C@@H]1[C@@H]2[C@@H](O)C[C@@]2(C)[C@H]1CC[C@]2(O)C(=O)CO [glucocorticoid, cortisol] | increased concentration dependently | no change |  |
| CCO [alcohol] |  |  | more enhanced |
